The source of these data is US12673039B2, “Methods of inducing autophagy using coumarin derivatives and related compounds” (Buck Institute for Research on Aging, priority 2019, dated 2026).

The target in the experiment is T1, human FXR (Homo sapiens, UniProt Q96RI1).
T1 construct: purchased Cayman
T1 sequence (Q96RI1 1-486): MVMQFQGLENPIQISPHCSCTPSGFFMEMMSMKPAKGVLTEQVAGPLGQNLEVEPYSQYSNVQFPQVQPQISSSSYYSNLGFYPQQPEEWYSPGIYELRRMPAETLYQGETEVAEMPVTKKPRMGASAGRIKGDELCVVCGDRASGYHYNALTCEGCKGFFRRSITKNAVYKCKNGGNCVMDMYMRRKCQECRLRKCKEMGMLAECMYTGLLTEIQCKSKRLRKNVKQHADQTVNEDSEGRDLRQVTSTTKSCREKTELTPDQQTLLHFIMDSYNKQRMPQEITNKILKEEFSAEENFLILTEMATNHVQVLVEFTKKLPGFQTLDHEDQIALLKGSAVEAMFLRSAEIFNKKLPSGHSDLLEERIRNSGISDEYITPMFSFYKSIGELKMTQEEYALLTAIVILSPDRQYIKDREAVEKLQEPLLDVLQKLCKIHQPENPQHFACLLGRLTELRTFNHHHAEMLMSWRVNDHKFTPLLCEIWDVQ
As to the kind of experiment: Human FXR antagonist reporter assay. Type of experiment: cell-based. As to the method: FIG. 7 illustrates that coumarin 106 (“C1”, “AIC106”) acts as a potent FXR antagonist. The ability of C1 (AIC106) (10 μM and 30 μM) to inhibit activation of the FXR agonist […] (GW, 150 μM) was interrogated using a commercially available kit (Indigo Biosciences) versus the established natural FXR ligands TUDCA and UDCA (50 μM and 100 μM). Values are fold induction versus untreated controls; ****p<0.01 versus GW; **p<0.05 versus GW.
FIG. 23, panels A-H: FXR modulation enhances HLH-30 expression in human neuronal SH-SY5Y cells. Panel A) Effects of AIC106 on human FXR activity was determined in a mammalian one-hybrid based kit assay by quantifying changes in the luciferase activity of FXR ligand (GW4064, GW) induced treatment. […] Panel B) Protein expression of TFEB, cathepsin-D (CAT-D) and small heterodimer partner-1 (SHP-1) was determined by immunoblot in neuronal SH-SY5Y cells post-24 hours of treatment with AIC106 and DMSO-control. […] Autophagic flux in DMSO-control and AIC106 treated neuronal cells was determined by quantifying levels of autophagosome specific LC3-II protein both in presence and absence of autophagy inhibitor bafliomycin A1 (Baf A, 10 nM). […]
Antagonistic activity of the AIC106 on human FXR was determined using a commercially available FXR Human reporter assay kit (Cayman) according to the supplied manual. […] Luminescence was quantified. […]
(Reporter assays use an easily measured gene product as a stand-in for the process of interest.)

Regarding `O=c1oc2c3c4c(cc2c2c1CCC2)CCCN4CCC3` [C1, 2,3,6,7,10,11-Hexahydro-1H,5H-cyclopenta(3,4)(1)benzopyrano(6,7,8-ij)quinolizin-12(9H)-one], the “FXR activation elicited by the FXR agonist GW4064” value (C1 10 μM and 30 μM versus TUDCA and UDCA (FIG. 7)) is given as “significantly inhibited FXR activation”. Further, under “FXR ligand GW4064 (FIG. 23, panel A)”, the “ligand-induced activation of human FXR” value was “prevented ligand-induced activation of the human FXR protein”.
